Where two headings read alike, the source gives them in different places.
Columns and labels:
[1] = test system: MCP-1 induced calcium ion influx in THP-1 cells; assay: MCP-1 Induced Calcium Mobilization in THP-1 Cells; format: cell-based; settings: for IC50: 0.2 μM MCP-1, FLIPR, read-out: Inhibition of MCP-1 Induced Calcium Ion Influx IC50
Outline: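 Fluo-3-loaded (5 μM, 45 min) THP-1 cells preincubated 15 min with compound. Calcium change after 0.2 μM MCP-1 addition read by FLIPR relative to vehicle; IC50 values derived.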

[2] = test system: MCP-1 induced chemotaxis of THP-1 cells; assay: MCP-1 Induced Chemotaxis in THP-1 Cells; format: cell-based; settings: Homo sapiens, MCP-1 0.01 μg/mL, 3 hours at 37° C., read-out: Inhibition of MCP-1 Induced Chemotaxis IC50
Description: MCP-1 induced chemotaxis was run in a 24-well chemotaxis chamber. MCP-1 (0.01 μg/mL) was added to the lower chamber and 100 μL of THP-1 cells (1×10^7 cell/mL) was added to the top chamber. Varying concentrations of test compound were added to the top and bottom chambers. Cells were allowed to chemotax for 3 hours at 37° C. and 5% CO2. An aliquot of the cells that had migrated to the bottom chamber was taken and counted then compared to vehicle.
Table 3 lists IC50 values for inhibition of MCP-1 induced chemotaxis.

CCR2 = target: T1, CCR2 (Homo sapiens, UniProt P41597); assay: MCP-1 Receptor Binding Assay in THP-1 Cells; settings: THP-1 cells, 0.5 nM 125I labeled MCP-1, 2 hours at 30° C.; read-out: Inhibition of MCP-1 Binding IC50
T1 construct: host or cells: THP-1 cells
T1 sequence (P41597 1-360 isoform P41597-2): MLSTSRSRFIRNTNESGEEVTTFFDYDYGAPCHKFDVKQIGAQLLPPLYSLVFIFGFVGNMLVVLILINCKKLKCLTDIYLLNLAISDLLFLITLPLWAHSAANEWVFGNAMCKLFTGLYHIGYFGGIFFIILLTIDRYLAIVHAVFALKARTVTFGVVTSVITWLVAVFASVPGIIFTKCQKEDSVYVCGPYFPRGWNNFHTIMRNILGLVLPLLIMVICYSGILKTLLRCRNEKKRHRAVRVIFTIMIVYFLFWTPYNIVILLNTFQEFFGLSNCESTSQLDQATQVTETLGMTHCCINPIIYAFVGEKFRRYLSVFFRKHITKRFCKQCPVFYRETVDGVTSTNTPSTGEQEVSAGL
Outline: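 Whole THP-1 cells incubated 2 h at 30° C with 0.5 nM 125I-MCP-1 and varying compound concentrations; bound radioactivity harvested on filters and counted by scintillation. Nonspecific binding with 1 μM cold MCP-1; IC50 for inhibition of binding versus vehicle.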

[3] = Homo sapiens, THP-1, THP-1 cells

IC50 [1, 3]	IC50 [2]	IC50 (CCR2)	IC50 ([1]; THP-1 cells)	SMILES	inhibition at 25 µM ([1]; Homo sapiens, THP-1, test concentration of 25 μM, given where an IC50 value was not obtained, read-out: Inhibition of MCP-1 Induced Calcium Ion Influx, percent inhibition)
900 nM	100 nM	350 nM		COc1ccc(C2CCN(CC(O)C3(O)CCN(C(=O)/C=C/c4cc(F)cc(F)c4)CC3)CC2)cc1 (stereo not drawn) [Compound 94]	
4300 nM	40 nM	290 nM		COc1ccc(C2CCN(CC(O)C3CCN(C(=S)Nc4cc(F)cc(F)c4)CC3)CC2)cc1 (stereo not drawn) [Compound 107, 4-{1-hydroxy-2-[4-(4-methoxy-phenyl)-piperidin-1-yl]-ethyl}-piperidine-1-carbothioic acid (3,5-difluoro-phenyl)-amide]	
	70 nM	90 nM	4300 nM	COc1ccc(C2CCN(CC(O)C3CCN(C(=S)Nc4ccc(Br)c(F)c4)CC3)CC2)cc1 (stereo not drawn) [Compound 110, 4-{1-hydroxy-2-[4-(4-methoxy-phenyl)-piperidin-1-yl]-ethyl}-piperidine-1-carbothioic acid (4-bromo-3-fluoro-phenyl)-amide]	
1900 nM	300 nM	110 nM		O=C(/C=C/c1cc(F)c(F)c(F)c1)N1CCC(O)(C(O)CN2CCC(c3ccc(F)cc3)CC2)CC1 (stereo not drawn) [Compound 128]	
2400 nM	190 nM	100 nM		O=C(/C=C/c1cc(F)cc(F)c1)N1CCC(O)(C(O)CN2CCC(c3ccc(F)cc3)CC2)CC1 (stereo not drawn) [Compound 130]	
210 nM	150 nM	140 nM		O=C(/C=C/c1cc(F)c(F)c(F)c1)N1CCC(O)(C(O)CN2CCC(c3ccc(C(F)(F)F)cc3)CC2)CC1 (stereo not drawn) [Compound 136]	
1300 nM	170 nM	255 nM		O=C(/C=C/c1ccc(F)c(F)c1)N1CCC(O)(C(O)CN2CCC(c3ccc(C(F)(F)F)cc3)CC2)CC1 (stereo not drawn) [Compound 137]	
810 nM	60 nM	210 nM		O=C(/C=C/c1cc(F)cc(F)c1)N1CCC(O)(C(O)CN2CCC(c3ccc(C(F)(F)F)cc3)CC2)CC1 (stereo not drawn) [Compound 138]	
	260 nM	260 nM		O=C(Nc1cc(F)cc(F)c1)N1CCC(O)(C(O)CN2CCC(c3ccc(C(F)(F)F)cc3)CC2)CC1 (stereo not drawn) [Compound 142, 4-hydroxy-4-{1-hydroxy-2-[4-(4-trifluoromethyl-phenyl)-piperidin-1 yl]-ethyl}-piperidine-1-carboxylic acid (3,5-difluoro-phenyl)-amide]	68%
510 nM	160 nM	40 nM		O=C(/C=C/c1cc(Cl)cc(Cl)c1)N1CCC(O)(C(O)CN2CCC(c3c[nH]c4ccc(N5CCOCC5)cc34)CC2)CC1 (stereo not drawn) [Compound 151]	
660 nM	180 nM	100 nM		O=C(/C=C/c1cc(F)c(F)c(F)c1)N1CCC(O)(C(O)CN2CCC(c3c[nH]c4ccc(F)cc34)CC2)CC1 (stereo not drawn) [Compound 155]	
4000 nM	360 nM	120 nM		O=C(/C=C/c1ccc(F)c(F)c1)N1CCC(O)(C(O)CN2CCC(c3c[nH]c4ccc(F)cc34)CC2)CC1 (stereo not drawn) [Compound 156]	
1900 nM	120 nM	150 nM		O=C(/C=C/c1cc(F)cc(F)c1)N1CCC(O)(C(O)CN2CCC(c3c[nH]c4ccc(F)cc34)CC2)CC1 (stereo not drawn) [Compound 157]	
120 nM	5 nM	0.2 nM		O=C(/C=C/c1cc(F)c(F)c(F)c1)N1CCC(O)(C(O)CN2CCC(c3ccc(Cl)cc3)CC2)CC1 (stereo not drawn) [Compound 163]	
60 nM	2 nM	50 nM		O=C(/C=C/c1cc(F)cc(F)c1)N1CCC(O)(C(O)CN2CCC(c3ccc(Cl)cc3)CC2)CC1 (stereo not drawn) [Compound 164]	
900 nM	120 nM	50 nM		O=C(Nc1ccc(Cl)c(Cl)c1)N1CCC(O)(C(O)CN2CCC(c3ccc(Cl)cc3)CC2)CC1 (stereo not drawn) [Compound 165, 4-{2-[4-(4-chloro-phenyl)-piperidin-1-yl]-1-hydroxy-ethyl}-4-hydroxy-piperidine-1-carboxylic acid (3,4-dichloro-phenyl)-amide]	
940 nM	4 nM	460 nM		O=C(Nc1ccc(Cl)c(Cl)c1)N1CCC(O)(C(O)CN2CCC(c3c[nH]c4ccc(F)cc34)CC2)CC1 (stereo not drawn) [Compound 167, 4-{2-[4-(5-fluoro-1H-indol-3-yl)-piperidin-1-yl]-1-hydroxy-ethyl}-4-hydroxy-piperidine-1-carboxylic acid (3,4-dichloro-phenyl)-amide]	
2100 nM	180 nM	270 nM		O=C(Nc1ccc(Cl)c(Cl)c1)N1CCC(O)(C(O)CN2CCC(c3c[nH]c4ccc(N5CCOCC5)cc34)CC2)CC1 (stereo not drawn) [Compound 181, 4-hydroxy-4-{1-hydroxy-2-[4-(5-morpholin-4-yl-1H-indol-3-yl)-piperidin-1-yl]-ethyl}-piperidine-1-carboxylic acid (3,4-dichloro-phenyl)-amide]	

Reference: patent US20070197590A1, “SUBSTITUTED DIPIPERIDINE CCR2 ANTAGONISTS” (priority 2006, published 2007)
